These results are taken from US5783247A, “Flavoring composition containing oxidized triglyceride fats, fatty acids, of fatty acid derivatives” (Van Den Berg Foods Co., Division of Conopco, Inc., priority 1993, dated 1998).

This data set can be described thus: Induction period of fat with anti-oxidant. It counts as physicochemical. To be noted: calculated on the fat; induction period established at 100° C. An excerpt: Preferably the anti-oxidant is selected from the group consisting of natural and nature-identical anti-oxidants, citric acid, tartaric acid and precursors thereof. The most preferred anti-oxidant is α-tocopherol and mixtures of tocopherols, which are commercially available. Alpha-tocopherol is commonly present as a native anti-oxidant in vegetable fat. About 0.1 wt. % (calculated on the fat) of alpha-tocopherol is sufficient for increasing the induction period of the fat by a factor of 1.5 (effective concentration). The induction period is established at 100° C., using the method described in J. Am. Oil. Chem. Soc. Vol. 63, 6 (1986), 192-195.

As for `Cc1c(C)c2c(c(C)c1O)CCC(C)(CCCC(C)CCCC(C)CCCC(C)C)O2` (stereo not drawn) [alpha-tocopherol], the “effective concentration (increasing the induction period of the fat by a factor of 1.5)” value is reported as “About 0.1 wt. %”.
